Experiments:
[1] = molecular target: beta-glucosidases enzyme from Aspergillus niger (Aspergillus niger, UniProt A2RAL4); settings: 100 μM, 1 μM enzyme, 50 Celsius degree, pH 5.5; after instant (less then 5 minutes) incubation
Protocol: The volume of reaction was set at 500 μl and carried in 2 ml gas tight tubes, shacked constantly at 800 rpm, and the hydrolysis was sampled 100 μl after 5 minutes, 30 minutes and 60 minutes. The hydrolysates were analysed by HPAEC analytics according to Westereng et al. 2013 (vide supra).

[2] = system: Ethylene production; test: Ethylene emanation of Arabidopsis seedlings (ETD 300 detector); format: in vivo, Arabidopsis thaliana; settings: 100 μM sprayed; 3 weeks in vitro seedlings
Protocol: Ethylene production was analysed in three independent experiments with the ETD 300 detector (Sensor-Sense, Nijmegen, the Netherlands) under a stop-and-flow routine where the gas from one vial accumulated in an interval of 10 min, and then flushed to the detector. Bars in FIG. 15 represent mean and standard deviation.

Chain of beta-glucosidases enzyme from Aspergillus niger (A2RAL4 20-860): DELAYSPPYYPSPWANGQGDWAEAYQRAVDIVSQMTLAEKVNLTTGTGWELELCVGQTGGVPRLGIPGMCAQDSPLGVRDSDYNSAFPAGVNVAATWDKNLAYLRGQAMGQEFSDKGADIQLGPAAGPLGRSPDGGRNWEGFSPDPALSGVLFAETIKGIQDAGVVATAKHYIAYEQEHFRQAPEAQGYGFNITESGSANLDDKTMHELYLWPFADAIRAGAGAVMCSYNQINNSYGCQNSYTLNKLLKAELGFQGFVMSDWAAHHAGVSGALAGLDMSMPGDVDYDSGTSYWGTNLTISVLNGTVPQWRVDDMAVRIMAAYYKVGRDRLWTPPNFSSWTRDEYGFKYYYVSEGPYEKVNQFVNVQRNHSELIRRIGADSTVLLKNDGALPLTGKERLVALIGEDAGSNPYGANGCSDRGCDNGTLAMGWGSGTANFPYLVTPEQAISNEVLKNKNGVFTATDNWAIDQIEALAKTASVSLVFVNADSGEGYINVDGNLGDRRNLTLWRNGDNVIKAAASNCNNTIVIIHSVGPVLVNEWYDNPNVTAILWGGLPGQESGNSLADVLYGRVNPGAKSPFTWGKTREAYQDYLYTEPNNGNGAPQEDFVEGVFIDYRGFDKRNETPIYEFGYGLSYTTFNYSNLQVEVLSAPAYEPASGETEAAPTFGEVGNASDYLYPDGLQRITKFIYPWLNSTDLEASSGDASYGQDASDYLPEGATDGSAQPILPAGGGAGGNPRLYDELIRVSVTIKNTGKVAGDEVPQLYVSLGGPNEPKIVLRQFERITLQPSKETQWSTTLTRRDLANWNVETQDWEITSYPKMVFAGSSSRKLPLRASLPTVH

Structure (SMILES)	resistance to digestion by beta-glucosidases [1]	Ethylene production versus mock-treated seedlings [2]
O=C1C(CO)OC(OC2C(CO)OC(O)C(O)C2O)C(O)C1O (stereo not drawn) [4-keto-cellobiose]	able to resist the digestion	
O=C(O)[C@H](O)[C@@H](O)[C@H](O[C@@H]1O[C@H](CO)[C@@H](O)[C@H](O)[C@H]1O)[C@H](O)CO [cellobionic acid, 4-O-β-D-glucopyranosyl-D-gluconic acid]	able to resist the digestion	higher
